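These data come from cells grown in 96-well plates and exposed to compound for 48 hours at five concentrations. The concentration for 50% growth inhibition is given as GI50. At the TGI there is no net growth.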
Experiments:
Experiment in all cases: growth of human tumour cells (NCI), 48 h
T-47D breast = system: T-47D breast
UO-31 renal = system: UO-31 renal
BT-549 breast = system: BT-549 breast
HOP-92 NSCLC = system: HOP-92 NSCLC
PC-3 prostate = system: PC-3 prostate
OVCAR-5 ovarian = system: OVCAR-5 ovarian
K-562 leukemia = system: K-562 leukemia
MDA-MB-435 = system: MDA-MB-435
NCI/ADR-RES ovarian = system: NCI/ADR-RES ovarian
MCF7 breast = system: MCF7 breast
MDA-MB-231 breast = system: MDA-MB-231 breast
NCI-H460 lung = system: NCI-H460 lung
HCC-2998 colon = system: HCC-2998 colon
OVCAR-8 ovarian = system: OVCAR-8 ovarian
SF-539 CNS = system: SF-539 CNS
HOP-62 NSCLC = system: HOP-62 NSCLC
HL-60(TB) leukemia = system: HL-60(TB) leukemia
UACC-62 melanoma = system: UACC-62 melanoma
RPMI-8226 leukemia = system: RPMI-8226 leukemia
SK-MEL-2 melanoma = system: SK-MEL-2 melanoma
KM12 colon = system: KM12 colon
OVCAR-4 ovarian = system: OVCAR-4 ovarian
M14 melanoma = system: M14 melanoma
HCT-15 colon = system: HCT-15 colon
DU-145 prostate = system: DU-145 prostate
MALME-3M melanoma = system: MALME-3M melanoma
A549 NSCLC = system: A549 NSCLC
NCI-H23 lung = system: NCI-H23 lung
SF-268 CNS = system: SF-268 CNS
NCI-H522 lung = system: NCI-H522 lung
MOLT-4 leukemia = system: MOLT-4 leukemia
LOX IMVI melanoma = system: LOX IMVI melanoma
HCT-116 colon = system: HCT-116 colon
CCRF-CEM leukemia = system: CCRF-CEM leukemia
786-0 renal = system: 786-0 renal
SW-620 colon = system: SW-620 colon
SF-295 CNS = system: SF-295 CNS
SNB-75 CNS = system: SNB-75 CNS
SK-OV-3 ovarian = system: SK-OV-3 ovarian
U251 CNS = system: U251 CNS
CAKI-1 renal = system: CAKI-1 renal
A498 renal = system: A498 renal
COLO 205 colon = system: COLO 205 colon
SK-MEL-28 melanoma = system: SK-MEL-28 melanoma
SNB-19 CNS = system: SNB-19 CNS
SK-MEL-5 melanoma = system: SK-MEL-5 melanoma
RXF 393 renal = system: RXF 393 renal
ACHN renal = system: ACHN renal
EKVX NSCLC = system: EKVX NSCLC
SN12C renal = system: SN12C renal
HT29 colon = system: HT29 colon
HS 578T breast = system: HS 578T breast
NCI-H226 lung = system: NCI-H226 lung
OVCAR-3 ovarian = system: OVCAR-3 ovarian
TK-10 renal = system: TK-10 renal

`Cc1c2cnccc2c(C)c2c1c1cc(O)ccc1n2C(C)C` showed a GI50 (T-47D breast) of 1980 nM, a TGI (T-47D breast) of 6270 nM and a GI50 (UO-31 renal) of 785 nM. It also gave a TGI (UO-31 renal) of 5210 nM, a GI50 (BT-549 breast) of 1110 nM and a TGI (BT-549 breast) of 2730 nM. For the same compound, the GI50 (HOP-92 NSCLC) was 2110 nM, the TGI (HOP-92 NSCLC) was 7280 nM and the GI50 (PC-3 prostate) was 1120 nM. It also gave a TGI (PC-3 prostate) of 3710 nM, a GI50 (OVCAR-5 ovarian) of 2420 nM and a TGI (OVCAR-5 ovarian) of 9460 nM. The GI50 (K-562 leukemia) was 1020 nM, the TGI (K-562 leukemia) was 5600 nM and the GI50 (MDA-MB-435) was 1040 nM. For the same compound, the TGI (MDA-MB-435) was 2290 nM, the GI50 (NCI/ADR-RES ovarian) was 1140 nM and the TGI (NCI/ADR-RES ovarian) was 4230 nM. It also gave a GI50 (MCF7 breast) of 1370 nM, a TGI (MCF7 breast) of 4820 nM and a GI50 (MDA-MB-231 breast) of 1510 nM. For the same compound, the TGI (MDA-MB-231 breast) was 7580 nM, the GI50 (NCI-H460 lung) was 361 nM and the TGI (NCI-H460 lung) was 1560 nM. For the same compound, the GI50 (HCC-2998 colon) was 1550 nM, the TGI (HCC-2998 colon) was 4940 nM and the GI50 (OVCAR-8 ovarian) was 972 nM. The TGI (OVCAR-8 ovarian) was 6180 nM, the GI50 (SF-539 CNS) was 1320 nM and the TGI (SF-539 CNS) was 2900 nM. For the same compound, the GI50 (HOP-62 NSCLC) was 1600 nM, the TGI (HOP-62 NSCLC) was 4740 nM and the GI50 (HL-60(TB) leukemia) was 420 nM. The TGI (HL-60(TB) leukemia) was 3130 nM, the GI50 (UACC-62 melanoma) was 1370 nM and the TGI (UACC-62 melanoma) was 4280 nM. The GI50 (RPMI-8226 leukemia) was 1050 nM, the TGI (RPMI-8226 leukemia) was 3190 nM and the GI50 (SK-MEL-2 melanoma) was 797 nM. It also gave a TGI (SK-MEL-2 melanoma) of 2580 nM, a GI50 (KM12 colon) of 570 nM and a TGI (KM12 colon) of 9870 nM. It also gave a GI50 (OVCAR-4 ovarian) of 1310 nM, a TGI (OVCAR-4 ovarian) of 7380 nM and a GI50 (M14 melanoma) of 678 nM. It also gave a TGI (M14 melanoma) of 2340 nM, a GI50 (HCT-15 colon) of 440 nM and a TGI (HCT-15 colon) of 4200 nM. It also gave a GI50 (DU-145 prostate) of 688 nM, a TGI (DU-145 prostate) of 7060 nM and a GI50 (MALME-3M melanoma) of 756 nM. For the same compound, the TGI (MALME-3M melanoma) was 2580 nM, the GI50 (A549 NSCLC) was 744 nM and the TGI (A549 NSCLC) was 8170 nM. For the same compound, the GI50 (NCI-H23 lung) was 721 nM, the TGI (NCI-H23 lung) was 3830 nM and the GI50 (SF-268 CNS) was 1180 nM. For the same compound, the TGI (SF-268 CNS) was 3620 nM, the GI50 (NCI-H522 lung) was 475 nM and the TGI (NCI-H522 lung) was 2540 nM. The GI50 (MOLT-4 leukemia) was 289 nM, the TGI (MOLT-4 leukemia) was 1260 nM and the GI50 (LOX IMVI melanoma) was 470 nM. For the same compound, the TGI (LOX IMVI melanoma) was 1900 nM, the GI50 (HCT-116 colon) was 964 nM and the TGI (HCT-116 colon) was 6560 nM. It also gave a GI50 (CCRF-CEM leukemia) of 1330 nM, a TGI (CCRF-CEM leukemia) of 5810 nM and a GI50 (786-0 renal) of 1700 nM. The TGI (786-0 renal) was 4530 nM, the GI50 (SW-620 colon) was 408 nM and the TGI (SW-620 colon) was 3270 nM. For the same compound, the GI50 (SF-295 CNS) was 1700 nM, the TGI (SF-295 CNS) was 5350 nM and the GI50 (SNB-75 CNS) was 1200 nM. The TGI (SNB-75 CNS) was 2460 nM, the GI50 (SK-OV-3 ovarian) was 709 nM and the TGI (SK-OV-3 ovarian) was 5550 nM. For the same compound, the GI50 (U251 CNS) was 1770 nM, the TGI (U251 CNS) was 6510 nM and the GI50 (CAKI-1 renal) was 388 nM. For the same compound, the TGI (CAKI-1 renal) was 5240 nM, the GI50 (A498 renal) was 2000 nM and the TGI (A498 renal) was 13300 nM. It also gave a GI50 (COLO 205 colon) of 2360 nM, a TGI (COLO 205 colon) of 6020 nM and a GI50 (SK-MEL-28 melanoma) of 1230 nM. It also gave a TGI (SK-MEL-28 melanoma) of 2960 nM, a GI50 (SNB-19 CNS) of 1760 nM and a TGI (SNB-19 CNS) of 10900 nM. For the same compound, the GI50 (SK-MEL-5 melanoma) was 1350 nM, the TGI (SK-MEL-5 melanoma) was 3000 nM and the GI50 (RXF 393 renal) was 935 nM. For the same compound, the TGI (RXF 393 renal) was 2390 nM, the GI50 (ACHN renal) was 285 nM and the TGI (ACHN renal) was 1770 nM. The GI50 (EKVX NSCLC) was 846 nM, the TGI (EKVX NSCLC) was 2410 nM and the GI50 (SN12C renal) was 647 nM. It also gave a TGI (SN12C renal) of 6060 nM, a GI50 (HT29 colon) of 3110 nM and a TGI (HT29 colon) of 11500 nM. The GI50 (HS 578T breast) was 1230 nM, the TGI (HS 578T breast) was 4550 nM and the GI50 (NCI-H226 lung) was 2820 nM. The TGI (NCI-H226 lung) was 11600 nM, the GI50 (OVCAR-3 ovarian) was 2040 nM and the TGI (OVCAR-3 ovarian) was 6860 nM. For the same compound, the GI50 (TK-10 renal) was 3310 nM and the TGI (TK-10 renal) was 8550 nM.
